Values quoted from earlier work, collected in paper PMC7867784 (Translational Lung Cancer Research, 2021).

System: RET-rearranged NSCLC
Conditions: cited from earlier work; for response rate and PFS in NSCLC with RET rearrangement: recent clinical trials

SMILES: COc1cc2nccc(Oc3ccc(NC(=O)C4(C(=O)Nc5ccc(F)cc5)CC4)cc3)c2cc1OC [cabozantinib]
- response rate (RET-rearranged NSCLC, 7/25 cases): 28%
- median PFS (RET-rearranged NSCLC): 5.5 months

SMILES: CO[C@]1(C(=O)N[C@@H](C)c2ccc(-n3cc(F)cn3)nc2)CC[C@H](c2nc(C)cc(Nc3cc(C)[nH]n3)n2)CC1 [pralsetinib]
- response rate and PFS in NSCLC with RET rearrangement: high response rate and prolonged PFS

SMILES: COc1ccc(CN2C3CC2CN(c2ccc(-c4cc(OCC(C)(C)O)cn5ncc(C#N)c45)cn2)C3)cn1 [selpercatinib]
- response rate and PFS in NSCLC with RET rearrangement: high response rate and prolonged PFS
